In brackets after ≈: the same amount, converted by molar mass. Like-named read-outs stand apart in the source and are kept apart here.

The values below come from article PMC11004567 (Heliyon, 2024).

Series [1] relates to VRE 368, vancomycin-resistant E. faecalis. As to the kind of experiment: In vitro anti-enterococcal MIC, broth dilution micro-method. It counts as cell-based, Enterococcus faecalis. Particulars: 24 h, read-out: MIC VRE 368. For orientation: In broth dilution the organism is exposed to a series of concentrations in liquid medium.
In series [2] the test system is MRSA3, methicillin-resistant S. aureus clinical isolate 63718. As to the kind of experiment: In vitro antibacterial evaluation, broth dilution micro-method MIC. It counts as cell-based. To be noted: Staphylococcus aureus, read-out: MIC MRSA3.
For series [3], the system named is VRE 725 B, vancomycin-resistant E. faecalis. The series can be described thus: In vitro anti-enterococcal MIC, broth dilution micro-method. It counts as cell-based, Enterococcus faecalis. To be noted: 24 h, read-out: MIC VRE 725 B.
Series [4] deals with human monocytic leukemia cell line THP-1. As to the kind of experiment: In vitro cell viability analysis. It counts as cell-based. Particulars: read-out: IC50 THP-1.
For series [5], the system named is Staphylococcus aureus ATCC 29213. The series can be described thus: In vitro antibacterial evaluation, broth dilution micro-method MIC. It counts as cell-based.
Series [6] has as its system MRSA2, methicillin-resistant S. aureus clinical isolate SA 630. The description is as above. To be noted: Staphylococcus aureus, MRSA, read-out: MIC MRSA2. It counts as cell-based.
Series [7] concerns MRSA1, methicillin-resistant S. aureus clinical isolate SA 3202. The series is described as above. It counts as cell-based. To be noted: Staphylococcus aureus, MRSA, read-out: MIC MRSA1.
For series [8], the system named is E. faecalis ATCC 29213. The series can be described thus: In vitro anti-enterococcal MIC, broth dilution micro-method. It counts as cell-based. Particulars: Enterococcus faecalis, ATCC29213, 24 h, read-out: MIC E. faecalis ATCC 29213.
Series [9] deals with non-cancer human renal proximal tubule epithelial TH-1 cells. To be noted: read-out: IC50 TH-1; cytotoxicity, non-cancer renal TH-1 cells; cited from earlier work.
A short description of series [10]: Lipophilicity log k by RP-HPLC. It counts as physicochemical. Particulars: logarithm of capacity factor, experimentally determined by RP-HPLC.
The test system of series [11] is VRE 342B, vancomycin-resistant E. faecalis. As to the kind of experiment: In vitro anti-enterococcal MIC, broth dilution micro-method. It counts as cell-based, Enterococcus faecalis. Particulars: 24 h, read-out: MIC VRE 342B.
In series [12] the test system is S. aureus ATCC 29213. The series can be described thus: MTT assay, inhibition of respiratory activity. It counts as cell-based, Staphylococcus aureus. To be noted: at 16 × MIC. (In general: Formazan colour is commonly taken as a measure of viable cells.)
For series [13], the system named is M. kansasii DSM 44162. As to the kind of experiment: In vitro antimycobacterial evaluation, broth dilution micro-method. It counts as cell-based. To be noted: Mycobacterium kansasii, DSM44162, read-out: MIC M. kansasii DSM 44162.
The subject of series [14] is mature S. aureus ATCC 29213 biofilm. The series can be described thus: Biofilm disruption / eradication of mature biofilm. It counts as cell-based, Staphylococcus aureus.
For series [15], the system named is breast cancer MCF-7 cells. Particulars: through creation of ROS, disruption of mitochondrial membrane potential; cited from earlier work.
For series [16], the system named is S. aureus ATCC 29213. The series can be described thus: Dynamics of antibacterial effect. It counts as cell-based, Staphylococcus aureus. Particulars: time-kill curves, 1×, 2× (SB3–Cu also 4×) MIC, up to 24 h.
Setting [17] is: ATCC29213, 24 h, read-out: MIC SA.

As to `COc1cccc(/C=N/N2C(=O)c3ccccc3NC2c2cccc(OC)c2O)c1O` (stereo not shown) [SB8, 3-[(E)-(2-hydroxy-3-methoxybenzylidene)amino]-2-(2-hydroxy-3-methoxyphenyl)-2,3-dihydroquinazolin-4(1H)-one], the MIC in [1], in [2] (24 h), in series [3], in series [5] (setting [17]), in [6] (24 h) and in series [7] (24 h) was greater than 256 µg/mL in each case. Further, the MIC in series [8] and in series [11] was greater than 256 µg/mL in each case. Moreover, the IC50 (commonly the concentration at which inhibition is half-maximal) in series [4] (Homo sapiens, THP-1, 24 h) was greater than 50 µM; in [9], greater than 1000 µM. This compound yielded a log k in [10] of 0.1689.

On to `CC1(C)S[C@@H]2[C@H](NC(=O)[C@H](N)c3ccccc3)C(=O)N2[C@H]1C(=O)O` [AMP, ampicillin, reference compound], for which the MIC (as a rule, the lowest concentration that inhibits growth of the organism) in [1] was 4 µg/mL (≈ 11.4 µM); in series [2] (24 h) it was 16 µg/mL; in [2] it was 45.8 µM; in [3], 4 µg/mL (≈ 11.4 µM); in series [5] (setting [17]), 2 µg/mL; in series [5] (ATCC29213, read-out: MIC SA), 5.7 µM. The MIC in series [6] (24 h) was greater than 16 µg/mL; in series [6], greater than 45.8 µM; in series [7] (24 h), greater than 16 µg/mL; in [7], greater than 45.8 µM; in series [8], 1 µg/mL (≈ 2.86 µM); in series [11] it was 4 µg/mL (≈ 11.4 µM). For the same compound, the “S. aureus Respiration Inhibition” value in series [12] came out at 81.9%.

On to `NNC(=O)c1ccncc1` [INH, isoniazid], for which, in series [13], the minimum inhibitory concentration (MIC) is 29.1 µM (≈ 3.99 µg/mL).

Take `N.N.[Cl][Pt][Cl]` [CPT, cisplatin, reference compound]: the IC50 in series [4] (cell viability, CCK-8, 24 h, ± SD, n = 6) came to 16.1 ± 1.3 µM.

As to `O=C1c2ccccc2NC(c2cc([N+](=O)[O-])ccc2O)N1/N=C/c1cc([N+](=O)[O-])ccc1O` (stereo not shown) [SB3, 3-[(E)-(2-hydroxy-5-nitrobenzylidene)amino]-2-(2-hydroxy-5-nitrophenyl)-2,3-dihydroquinazolin-4(1H)-one], the MIC was greater than 256 µg/mL in series [1]; 64 µg/mL in [2] (24 h); 141 µM in [2]; greater than 256 µg/mL in series [3]; 32 µg/mL in series [5] (setting [17]); 71.2 µM in [5] (ATCC29213, read-out: MIC SA). In addition, the MIC was 16 µg/mL in series [6] (24 h); 35.6 µM in [6]; 64 µg/mL in [7] (24 h); 141 µM in [7]; 256 µg/mL (≈ 570 µM) in series [8]; greater than 256 µg/mL in series [11]. Also, the “Reduction of biofilm viability” value in series [14] (at 0.5 × MIC) is reported as “no effect”. Moreover, the “Eradication activity on mature biofilm” value in series [14] (at 1 × MIC) came to 81.7 ± 13.7%. Besides, the “Concentration eradicating 80% of S. aureus biofilm” value in [14] (mature biofilm, 24 h treatment) is given as 1 × MIC. Also, the IC50 in [4] (Homo sapiens, THP-1, 24 h) is 12.7 ± 1.2 µM; in [9] it was 432 µM. Further, the log k in series [10] is listed as 0.6022. For the same compound, in [15], the “Apoptosis of MCF-7 cells” value is “induces apoptosis”. Also, in series [16], the “Mode of antibacterial action (bactericidal vs bacteriostatic)” value is reported as “only bacteriostatically”.
